Article PMC9851200, “Multiparameter phenotypic screening for endogenous TFEB and TFE3 translocation identifies novel chemical series modulating lysosome function” (Autophagy, 2022)

Experiments:
Format in all cases: binding
[1] = molecular target: kinases (KINOMEscan panel) (Homo sapiens, UniProt P15056, V600E); conditions: kinase BRAF(V600E); NEW KINOMEscan
[2] = molecular target: kinases (KINOMEscan panel) (Homo sapiens, UniProt P04626); conditions: kinase ERBB2; NEW KINOMEscan
[3] = molecular target: kinases (KINOMEscan panel) (Homo sapiens, UniProt P48736); conditions: kinase PIK3CG; NEW KINOMEscan
[4] = molecular target: kinases (KINOMEscan panel) (Homo sapiens, UniProt P00533, L861Q); conditions: kinase EGFR(L861Q); NEW KINOMEscan
[5] = molecular target: T1, kinases (KINOMEscan panel) (Homo sapiens, UniProt Q13976); conditions: kinase PRKG1; NEW KINOMEscan
T1 sequence (Q13976 1-671): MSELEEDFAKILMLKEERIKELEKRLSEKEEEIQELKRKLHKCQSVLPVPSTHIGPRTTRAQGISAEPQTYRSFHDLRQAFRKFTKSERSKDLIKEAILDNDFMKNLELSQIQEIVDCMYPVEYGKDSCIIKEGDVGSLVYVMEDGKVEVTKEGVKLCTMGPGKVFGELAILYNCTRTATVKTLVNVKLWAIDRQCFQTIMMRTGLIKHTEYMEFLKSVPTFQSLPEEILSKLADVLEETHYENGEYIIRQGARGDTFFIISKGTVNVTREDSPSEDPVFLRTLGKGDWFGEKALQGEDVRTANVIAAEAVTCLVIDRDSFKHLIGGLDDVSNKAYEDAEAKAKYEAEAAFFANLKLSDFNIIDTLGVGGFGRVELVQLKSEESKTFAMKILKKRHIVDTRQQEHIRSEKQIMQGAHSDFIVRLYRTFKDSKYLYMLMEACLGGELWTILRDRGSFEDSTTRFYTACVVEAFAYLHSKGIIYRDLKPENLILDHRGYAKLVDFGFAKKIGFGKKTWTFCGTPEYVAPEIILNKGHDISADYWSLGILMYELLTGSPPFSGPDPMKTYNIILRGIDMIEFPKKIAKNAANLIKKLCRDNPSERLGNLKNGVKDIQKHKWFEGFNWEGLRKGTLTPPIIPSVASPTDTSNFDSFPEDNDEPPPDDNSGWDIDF

[6] = molecular target: kinases (KINOMEscan panel) (Homo sapiens, UniProt P11802); conditions: NEW KINOMEscan; for KINOMEscan CDK4-cyclinD3: kinase CDK4-cyclinD3; for KINOMEscan CDK4: kinase CDK4
[7] = molecular target: kinases (KINOMEscan panel) (Homo sapiens, UniProt P14616); conditions: INSRR; NEW KINOMEscan
[8] = molecular target: kinases (KINOMEscan panel) (Homo sapiens, UniProt Q86Z02); conditions: HIPK1; NEW KINOMEscan
[9] = molecular target: kinases (KINOMEscan panel) (Homo sapiens, UniProt Q9P0L2); conditions: NEW KINOMEscan
[10] = molecular target: kinases (KINOMEscan panel) (Homo sapiens, UniProt P42336, E542K); conditions: NEW KINOMEscan
[11] = molecular target: T2, kinases (KINOMEscan panel) (Homo sapiens, UniProt Q9UBE8); conditions: NLK; NEW KINOMEscan
T2 sequence (Q9UBE8 1-527): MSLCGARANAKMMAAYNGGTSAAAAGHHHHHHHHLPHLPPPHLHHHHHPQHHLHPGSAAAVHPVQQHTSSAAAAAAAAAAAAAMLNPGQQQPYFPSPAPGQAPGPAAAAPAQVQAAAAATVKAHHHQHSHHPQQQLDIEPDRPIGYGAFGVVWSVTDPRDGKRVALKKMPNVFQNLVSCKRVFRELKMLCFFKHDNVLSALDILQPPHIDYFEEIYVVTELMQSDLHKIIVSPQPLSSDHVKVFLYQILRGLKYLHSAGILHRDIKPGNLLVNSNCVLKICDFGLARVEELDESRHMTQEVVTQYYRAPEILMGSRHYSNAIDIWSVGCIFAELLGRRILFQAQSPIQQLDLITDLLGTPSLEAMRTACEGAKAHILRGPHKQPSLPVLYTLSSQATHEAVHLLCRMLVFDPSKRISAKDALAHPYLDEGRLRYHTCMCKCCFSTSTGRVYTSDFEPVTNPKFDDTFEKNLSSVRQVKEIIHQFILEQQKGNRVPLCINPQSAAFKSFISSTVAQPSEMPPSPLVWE

[12] = molecular target: T3, kinases (KINOMEscan panel) (Homo sapiens, UniProt Q96L34); conditions: kinase MARK4; NEW KINOMEscan
T3 sequence (Q96L34 1-752): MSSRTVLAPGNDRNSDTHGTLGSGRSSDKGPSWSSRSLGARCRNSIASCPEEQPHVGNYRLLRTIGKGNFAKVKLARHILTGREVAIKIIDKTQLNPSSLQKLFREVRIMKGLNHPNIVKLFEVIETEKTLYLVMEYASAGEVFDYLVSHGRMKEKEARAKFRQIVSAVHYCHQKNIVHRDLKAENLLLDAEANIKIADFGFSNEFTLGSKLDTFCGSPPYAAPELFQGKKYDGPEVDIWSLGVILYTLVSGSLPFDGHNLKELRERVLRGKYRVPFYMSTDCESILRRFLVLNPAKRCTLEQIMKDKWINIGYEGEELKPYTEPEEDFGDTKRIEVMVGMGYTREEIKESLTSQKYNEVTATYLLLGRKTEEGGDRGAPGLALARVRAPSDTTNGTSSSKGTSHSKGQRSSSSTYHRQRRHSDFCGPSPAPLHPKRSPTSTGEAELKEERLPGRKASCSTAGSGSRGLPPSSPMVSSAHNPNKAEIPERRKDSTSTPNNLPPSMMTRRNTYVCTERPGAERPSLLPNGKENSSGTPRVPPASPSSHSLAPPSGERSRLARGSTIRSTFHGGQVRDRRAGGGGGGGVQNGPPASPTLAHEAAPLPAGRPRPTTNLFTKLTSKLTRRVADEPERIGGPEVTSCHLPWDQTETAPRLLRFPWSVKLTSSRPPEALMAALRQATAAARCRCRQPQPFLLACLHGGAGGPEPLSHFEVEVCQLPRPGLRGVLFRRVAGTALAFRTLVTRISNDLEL

[13] = molecular target: kinases (KINOMEscan panel) (Homo sapiens, UniProt Q9NQU5); conditions: PAK6; NEW KINOMEscan
[14] = molecular target: kinases (KINOMEscan panel) (Homo sapiens, UniProt Q5S007); conditions: NEW KINOMEscan

Chain of kinases (KINOMEscan panel) (Homo sapiens, UniProt P11802) (P11802 whole entry): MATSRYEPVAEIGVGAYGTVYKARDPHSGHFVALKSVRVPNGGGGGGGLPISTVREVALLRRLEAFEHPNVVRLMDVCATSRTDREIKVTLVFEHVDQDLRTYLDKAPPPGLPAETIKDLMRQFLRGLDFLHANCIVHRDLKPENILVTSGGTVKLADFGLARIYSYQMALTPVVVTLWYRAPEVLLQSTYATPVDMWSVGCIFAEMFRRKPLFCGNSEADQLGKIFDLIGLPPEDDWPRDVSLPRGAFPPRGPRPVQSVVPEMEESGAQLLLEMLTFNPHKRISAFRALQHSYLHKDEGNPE
Chain of kinases (KINOMEscan panel) (Homo sapiens, UniProt P48736) (P48736 whole entry): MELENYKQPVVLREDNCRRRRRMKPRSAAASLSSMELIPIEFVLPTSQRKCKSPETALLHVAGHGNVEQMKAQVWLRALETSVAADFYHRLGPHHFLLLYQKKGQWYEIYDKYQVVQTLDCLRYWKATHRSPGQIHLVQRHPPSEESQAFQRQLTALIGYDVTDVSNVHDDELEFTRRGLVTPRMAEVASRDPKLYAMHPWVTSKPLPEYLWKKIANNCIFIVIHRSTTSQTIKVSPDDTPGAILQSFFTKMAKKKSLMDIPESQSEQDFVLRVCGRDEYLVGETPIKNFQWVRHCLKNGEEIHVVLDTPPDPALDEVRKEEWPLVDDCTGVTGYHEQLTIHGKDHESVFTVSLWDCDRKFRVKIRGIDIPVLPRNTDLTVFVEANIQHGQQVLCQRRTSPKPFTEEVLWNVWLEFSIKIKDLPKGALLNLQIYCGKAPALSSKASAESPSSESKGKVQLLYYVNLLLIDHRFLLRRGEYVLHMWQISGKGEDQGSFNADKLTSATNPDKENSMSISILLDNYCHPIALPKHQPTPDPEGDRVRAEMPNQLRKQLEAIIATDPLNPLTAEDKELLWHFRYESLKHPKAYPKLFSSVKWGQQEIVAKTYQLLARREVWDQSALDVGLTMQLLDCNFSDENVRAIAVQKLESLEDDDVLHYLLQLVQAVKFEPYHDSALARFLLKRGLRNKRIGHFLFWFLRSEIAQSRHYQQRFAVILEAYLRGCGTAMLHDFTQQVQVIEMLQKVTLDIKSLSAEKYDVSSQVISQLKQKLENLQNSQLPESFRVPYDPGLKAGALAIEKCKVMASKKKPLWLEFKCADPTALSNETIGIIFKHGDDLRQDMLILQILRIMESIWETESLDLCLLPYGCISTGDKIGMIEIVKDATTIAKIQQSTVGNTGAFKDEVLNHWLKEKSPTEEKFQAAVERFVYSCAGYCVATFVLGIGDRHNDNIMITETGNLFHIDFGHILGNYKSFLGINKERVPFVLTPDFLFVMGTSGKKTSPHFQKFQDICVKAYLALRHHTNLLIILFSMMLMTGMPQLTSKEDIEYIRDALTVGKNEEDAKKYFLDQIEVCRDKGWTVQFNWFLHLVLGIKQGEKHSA
Chain of kinases (KINOMEscan panel) (Homo sapiens, UniProt P04626) (P04626 23-1255): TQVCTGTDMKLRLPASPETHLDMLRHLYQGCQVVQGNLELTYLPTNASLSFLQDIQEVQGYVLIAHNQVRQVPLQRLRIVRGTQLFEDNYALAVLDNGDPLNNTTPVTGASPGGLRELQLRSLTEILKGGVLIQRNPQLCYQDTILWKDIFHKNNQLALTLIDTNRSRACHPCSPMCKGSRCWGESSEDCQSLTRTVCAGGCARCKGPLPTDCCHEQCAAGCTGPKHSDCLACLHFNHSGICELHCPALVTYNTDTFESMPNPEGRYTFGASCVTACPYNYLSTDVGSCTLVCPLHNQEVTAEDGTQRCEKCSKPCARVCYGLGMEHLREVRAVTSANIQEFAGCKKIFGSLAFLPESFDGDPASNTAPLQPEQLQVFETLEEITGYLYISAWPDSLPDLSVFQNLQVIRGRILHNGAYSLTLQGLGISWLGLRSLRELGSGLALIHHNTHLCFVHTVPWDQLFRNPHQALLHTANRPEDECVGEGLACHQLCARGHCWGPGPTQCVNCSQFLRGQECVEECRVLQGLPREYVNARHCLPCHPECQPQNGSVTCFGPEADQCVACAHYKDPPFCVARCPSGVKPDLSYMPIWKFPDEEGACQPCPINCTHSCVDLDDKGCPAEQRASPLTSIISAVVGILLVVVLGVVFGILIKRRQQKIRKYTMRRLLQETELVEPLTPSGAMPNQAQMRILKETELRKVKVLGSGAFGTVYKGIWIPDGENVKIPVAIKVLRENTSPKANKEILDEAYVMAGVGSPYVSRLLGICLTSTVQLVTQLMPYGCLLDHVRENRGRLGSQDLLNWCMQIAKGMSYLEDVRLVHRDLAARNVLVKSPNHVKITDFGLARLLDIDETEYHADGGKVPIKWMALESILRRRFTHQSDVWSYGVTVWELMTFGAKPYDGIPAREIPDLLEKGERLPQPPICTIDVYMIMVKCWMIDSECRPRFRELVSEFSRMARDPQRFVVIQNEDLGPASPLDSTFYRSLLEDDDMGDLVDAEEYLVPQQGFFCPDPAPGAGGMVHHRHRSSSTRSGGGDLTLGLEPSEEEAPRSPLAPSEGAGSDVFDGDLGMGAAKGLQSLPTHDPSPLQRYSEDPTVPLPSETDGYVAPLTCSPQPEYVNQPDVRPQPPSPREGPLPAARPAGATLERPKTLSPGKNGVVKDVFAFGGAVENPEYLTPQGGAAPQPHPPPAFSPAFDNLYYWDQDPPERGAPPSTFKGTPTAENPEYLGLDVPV
Chain of kinases (KINOMEscan panel) (Homo sapiens, UniProt P00533, L861Q) (P00533 25-1210 L861Q): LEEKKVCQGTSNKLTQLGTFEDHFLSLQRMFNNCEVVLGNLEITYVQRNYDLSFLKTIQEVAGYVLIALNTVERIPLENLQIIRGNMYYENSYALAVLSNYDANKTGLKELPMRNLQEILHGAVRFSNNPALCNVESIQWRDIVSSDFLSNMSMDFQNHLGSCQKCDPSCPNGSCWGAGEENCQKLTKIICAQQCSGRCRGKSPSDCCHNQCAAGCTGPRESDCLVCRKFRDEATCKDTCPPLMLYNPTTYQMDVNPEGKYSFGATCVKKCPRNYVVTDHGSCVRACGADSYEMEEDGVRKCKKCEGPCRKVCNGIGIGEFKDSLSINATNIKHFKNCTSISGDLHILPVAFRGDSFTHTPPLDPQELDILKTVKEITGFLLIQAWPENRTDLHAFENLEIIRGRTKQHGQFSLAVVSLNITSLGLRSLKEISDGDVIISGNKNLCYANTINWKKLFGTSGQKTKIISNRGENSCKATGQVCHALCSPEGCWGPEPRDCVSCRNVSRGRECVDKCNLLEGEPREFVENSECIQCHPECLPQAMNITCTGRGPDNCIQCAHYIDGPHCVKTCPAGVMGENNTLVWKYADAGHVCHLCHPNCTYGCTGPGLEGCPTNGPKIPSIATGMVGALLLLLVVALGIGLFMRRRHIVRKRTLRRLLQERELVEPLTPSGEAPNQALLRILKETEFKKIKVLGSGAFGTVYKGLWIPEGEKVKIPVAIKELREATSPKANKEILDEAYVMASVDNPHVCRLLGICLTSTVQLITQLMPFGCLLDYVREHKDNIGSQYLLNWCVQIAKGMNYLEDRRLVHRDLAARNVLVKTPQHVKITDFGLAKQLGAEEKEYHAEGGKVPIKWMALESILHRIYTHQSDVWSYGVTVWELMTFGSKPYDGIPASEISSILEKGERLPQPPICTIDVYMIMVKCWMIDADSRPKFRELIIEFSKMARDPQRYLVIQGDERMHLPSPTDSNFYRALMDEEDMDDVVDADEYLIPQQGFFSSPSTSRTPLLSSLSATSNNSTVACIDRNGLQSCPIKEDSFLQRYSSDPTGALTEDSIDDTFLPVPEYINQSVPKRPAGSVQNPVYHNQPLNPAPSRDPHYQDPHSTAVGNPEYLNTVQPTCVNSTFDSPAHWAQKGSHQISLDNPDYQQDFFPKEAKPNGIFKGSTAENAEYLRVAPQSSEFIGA
Chain of kinases (KINOMEscan panel) (Homo sapiens, UniProt P42336, E542K) (P42336 whole entry E542K): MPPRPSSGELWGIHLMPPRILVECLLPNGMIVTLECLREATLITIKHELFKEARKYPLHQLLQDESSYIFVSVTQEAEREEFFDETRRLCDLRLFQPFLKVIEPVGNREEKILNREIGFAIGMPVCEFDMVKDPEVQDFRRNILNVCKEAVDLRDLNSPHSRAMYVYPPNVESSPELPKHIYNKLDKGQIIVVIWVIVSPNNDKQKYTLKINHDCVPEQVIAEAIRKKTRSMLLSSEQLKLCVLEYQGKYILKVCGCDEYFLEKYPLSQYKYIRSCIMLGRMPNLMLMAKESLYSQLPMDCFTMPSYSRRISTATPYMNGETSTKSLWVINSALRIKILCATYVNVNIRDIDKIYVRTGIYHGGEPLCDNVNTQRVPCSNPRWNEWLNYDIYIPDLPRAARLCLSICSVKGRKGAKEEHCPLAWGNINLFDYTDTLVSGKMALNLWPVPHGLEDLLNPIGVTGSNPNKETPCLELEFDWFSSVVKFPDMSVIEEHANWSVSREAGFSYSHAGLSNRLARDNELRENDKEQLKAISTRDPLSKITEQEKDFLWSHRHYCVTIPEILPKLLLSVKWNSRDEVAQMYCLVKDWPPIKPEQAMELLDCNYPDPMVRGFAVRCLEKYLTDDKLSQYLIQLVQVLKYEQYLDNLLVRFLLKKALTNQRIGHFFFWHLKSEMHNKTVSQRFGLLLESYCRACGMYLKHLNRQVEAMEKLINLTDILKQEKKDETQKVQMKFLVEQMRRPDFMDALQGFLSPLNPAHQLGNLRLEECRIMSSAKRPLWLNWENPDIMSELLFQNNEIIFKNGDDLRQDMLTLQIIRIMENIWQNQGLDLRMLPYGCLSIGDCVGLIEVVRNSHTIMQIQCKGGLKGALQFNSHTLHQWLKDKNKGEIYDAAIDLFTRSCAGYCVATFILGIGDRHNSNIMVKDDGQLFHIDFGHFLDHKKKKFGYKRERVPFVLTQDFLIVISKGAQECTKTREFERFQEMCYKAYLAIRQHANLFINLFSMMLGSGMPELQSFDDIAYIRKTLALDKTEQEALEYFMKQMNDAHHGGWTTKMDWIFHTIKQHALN

In the case of `Cc1cccc(-c2nc(Nc3ccc4nn(C)cc4c3)c3ccccc3n2)n1` [NK167], the “KINOMEscan BRAF(V600E)” value [1] is reported as 0, the “KINOMEscan ERBB2” value [2] is reported as 0 and the “KINOMEscan PIK3CG” value [3] is reported as 0. For the same compound, the “KINOMEscan EGFR(L861Q)” value [4] was 0, the “KINOMEscan PRKG1” value [5] was 0 and the “KINOMEscan CDK4-cyclinD1 (???) CCND1” value [6] was 10. For the same compound, the “KINOMEscan CDK4-cyclinD3” value [6] was 0, the “KINOMEscan CDK4” value [6] was 0 and the “KINOMEscan INSRR” value [7] was 0. For the same compound, the “KINOMEscan HIPK1” value [8] was 27, the “KINOMEscan MARK1” value [9] was 21 and the “KINOMEscan PIK3CA(E542K)” value [10] was 15. For the same compound, the “KINOMEscan NLK” value [11] was 0, the “KINOMEscan MARK4” value [12] was 34 and the “KINOMEscan PAK6” value [13] was 0. For the same compound, the “KINOMEscan LRRK2” value [14] was 21.
In the case of `Cc1cccc(-c2nc(N(C)c3ccc4ncsc4c3)c3ccccc3n2)n1` [NK-161], the “KINOMEscan BRAF(V600E)” value [1] is reported as 0, the “KINOMEscan ERBB2” value [2] is reported as 0 and the “KINOMEscan PIK3CG” value [3] is reported as 8. The “KINOMEscan EGFR(L861Q)” value [4] was 0, the “KINOMEscan PRKG1” value [5] was 10 and the “KINOMEscan CDK4-cyclinD1 (???) CCND1” value [6] was 18. For the same compound, the “KINOMEscan CDK4-cyclinD3” value [6] was 0, the “KINOMEscan CDK4” value [6] was 0 and the “KINOMEscan INSRR” value [7] was 0. The “KINOMEscan HIPK1” value [8] was 5, the “KINOMEscan MARK1” value [9] was 13 and the “KINOMEscan PIK3CA(E542K)” value [10] was 19. For the same compound, the “KINOMEscan NLK” value [11] was 0, the “KINOMEscan MARK4” value [12] was 16 and the “KINOMEscan PAK6” value [13] was 0. For the same compound, the “KINOMEscan LRRK2” value [14] was 27.
